Data as given in patent US20110145975A1, “P0WDER-FREE GLOVE WITH STABLE AND FAST ACTING MICROBIAL COATING” (ANSELL LIMITED, priority 2009, published 2011).

Assay type: physicochemical
Text: Several cationic antimicrobial agents are available for incorporation into the antimicrobial coating. The resistances of these cationic antimicrobial agents to degradation vary due to differences in their chemical structure, molecular weight, and species of anions and anionic surfactants that tend to degrade the long lifetime of the antimicrobial coating. […] Mixtures of antimicrobial agents can be used, for example to expand the range of bacteria against which the coating is effective.

poly(hexamethylene biguanide) chloride
resistance to degradation: more resistant to degradation than CHG
